As usually defined, the IC50 is the concentration at which inhibition is half-maximal. A word on the EC50: it is the concentration at which the effect is half-maximal.

The text below walks through data of paper PMC9474883, “Novel tricyclic small molecule inhibitors of Nicotinamide N-methyltransferase for the treatment of metabolic disorders” (Scientific Reports, 2022).

Molecules are shown by their SMILES. Values joined by “and” are separate entries in the source; they are usually repeats but may differ in a detail not shown here. Equal values may be shown once.

For test [1], the target named is T1, hNNMT (Homo sapiens, UniProt P40261).
T1 sequence (P40261 1-264): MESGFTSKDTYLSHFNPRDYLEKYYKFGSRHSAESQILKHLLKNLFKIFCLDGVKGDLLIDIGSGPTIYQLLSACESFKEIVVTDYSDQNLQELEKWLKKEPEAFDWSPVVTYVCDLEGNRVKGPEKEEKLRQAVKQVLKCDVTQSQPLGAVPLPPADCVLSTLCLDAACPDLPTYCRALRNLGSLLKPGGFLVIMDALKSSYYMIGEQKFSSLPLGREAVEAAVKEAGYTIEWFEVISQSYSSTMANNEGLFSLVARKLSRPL
The experiment in a line: Fluorescence based NNMT enzymatic assay (human). The following applies: recombinant human NNMT, fluorescence of an MNA derivative; for IC50: read-out: hNNMT IC50. It is filed as biochemical. As for the experimental part:
(§1) NNMT activity was measured by a fluorescence based assay as previously described. Briefly, Inhibitors were screened using human, mouse and monkey NNMT enzymes at different concentrations. The final assay reaction mixture contained a buffer of 100 mM Tris Hcl pH 7.5, 0.04% BSA, 2 mM Dithiothreitol and 1% DMSO. A fluorescent product 2, 7- naphthyridine was measured in a Tecan reader with excitation at 375 nm and emission at 430 nm. The IC50 values were determined by fitting the inhibition curves (percent inhibition versus inhibitor concentration) using a four parametric sigmoidal dose response in graph pad prism.

For another test, the target named is T2, mouse NNMT (Mus musculus, UniProt O55239).
T2 sequence (O55239 1-264): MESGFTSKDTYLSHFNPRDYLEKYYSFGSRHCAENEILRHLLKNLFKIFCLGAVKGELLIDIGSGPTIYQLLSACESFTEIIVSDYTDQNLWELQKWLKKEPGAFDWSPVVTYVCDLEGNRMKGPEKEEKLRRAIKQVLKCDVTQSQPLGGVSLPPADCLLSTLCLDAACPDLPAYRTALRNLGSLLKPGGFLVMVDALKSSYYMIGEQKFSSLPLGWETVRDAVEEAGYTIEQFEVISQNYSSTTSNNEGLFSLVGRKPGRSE
In words: Fluorescence based NNMT enzymatic assay (mouse). It is filed as biochemical. As to conditions: recombinant mouse NNMT, fluorescence of an MNA derivative; read-out: mNNMT IC50. As for the experimental part: as §1

Test [2] concerns the target T3, endogenous NNMT in U2OS cells (Homo sapiens, UniProt P40261).
T3 construct: endogenous in cells; host or cells: U2OS (human bone osteosarcoma)
T3 sequence (P40261 1-264): T1 sequence (P40261 1-264)
The experiment in a line: Cell based U2OS assay (endogenous NNMT, MNA by LC–MS/MS). As to conditions: 24 h treatment; for EC50: read-out: Cell based inhibition in U2OS EC50. As for the experimental part:
(§2) As next steps, cellular assays using the human U2OS cell line were carried out. This assay, described in[6], measures inhibition of endogenous NNMT, without recombinant expression, by quantification of MNA via LC–MS/MS. […] EC50 values were higher by a factor of ~ 30 compared to IC50 values on the isolated recombinant hNNMT, probably reflecting low cell membrane permeability.
The cell based assay with Human bone osteosarcoma (U2OS) cell line was performed using procedures described before (6). Briefly, the cells were seeded into a 96 well cell culture plate followed by incubation for 24 h at 37 °C, 5% CO2, and 95% humidity. Cell culture media was replaced with 100 µl of medium/ inhibitor mixture at different concentrations and incubated for another 24 h. The cells were processed and […] of supernatant was transferred into 96 well plate (Costar 3364) and analyzed by LC–MS/MS. The IC50 values were determined by fitting the inhibition curves (percent inhibition versus inhibitor concentration) using a four parametric sigmoidal dose response graph pad prism.

In test [3] the test system is NNMT (endogenous MNA levels). In words: Determination of MNA in cells (Target engagement). It is filed as cell-based, human. The following applies: maximal MNA reduction relative to control without compound. As for the experimental part:
as §2

The target in test [4] is T1, hNNMT. In words: Thermal shift assay. As to conditions: for shift in melting temperature (Tm) in presence of SAM / shift in melting temperature (Tm) in presence of SAH: hNNMT; for shift in melting temperature (Tm) in presence of SAM: 5 uM SAM, 10 uM compound; for shift in melting temperature (Tm) in presence of SAH: enzyme:SAH:compound ~ 1:5:10 (1 uM protein, 5 uM SAH, 10 uM compound).
Method: Thermal shift assay was performed to assess the binding of tricyclic compounds [(6) = JBSNF-000028, (8) = JBSNF-000107] to hNNMT prior to co-crystallization studies.

Another test deals with NNMT. As to conditions: published NNMT inhibitor; cited from earlier work.

Regarding `CN1Cc2cccc3cccc(c23)C1=N` [(24)], the IC50 at hNNMT [1] was above 10 µM.

As for `CCn1c(=N)n2c3c(cccc31)CCC2` [B], the IC50 at hNNMT [1] amounted to 0.18 µM.

With `CC(=O)N1CCN2C(=N)N(C)Cc3cccc1c32` [Compound (15)], the IC50 on hNNMT [1] is above 30 µM.

`CN1Cc2nn(C)c3c2N(CCC3)C1=N` [Compound (26)]: at hNNMT [1], the IC50 was above 30 µM.

For the compound `Br.N=C1N(CCCc2ccccc2F)Cc2cccc3c2N1CCO3` [Compound (22)], on hNNMT [1], the “hNNMT IC50” value is “inactive” and the IC50 is above 30 µM.

Turning to `CN1Cc2c3c(nn2C)CCCN3C1=N` [Compound (25)], the 50% inhibitory concentration (IC50) at hNNMT [1] is above 30 µM.

On to `Br.CN1Cc2c(F)c(F)cc3c2N(CC3)C1=N` [Compound (9), 8,9-difluoro-2-methyl-1,2,5,6-tetrahydro-3H-pyrrolo[3,2,1-ij]quinazolin-3-imine hydrobromide], for which the IC50 is 0.49 ± 0.04 µM on hNNMT [1] and above 3 µM on mouse NNMT. Moreover, in test [2], the EC50 was above 3 µM. Besides, the “% MNA reduction” value in test [3] was found to be 43%.

Take `N=c1sc2cccc3c2n1CCC3` [A]: the IC50 on hNNMT [1] is 1.6 µM.

For the compound `CN1Cc2cc(F)cc3c2N(CC3)C1=N` [Compound (8)], the IC50 at hNNMT [1] was 0.038 µM and 0.039 µM; on mouse NNMT, 1.1 ± 0.5 µM. Also, in test [2], the EC50 amounted to 1.1 ± 0.2 µM. Besides, the “Tm in presence of SAH” value on hNNMT [4] (hNNMT 1 uM, SAH 5 uM, compound 10 uM, protein with SAH alone Tm=39°C) was determined as 50 °C. Moreover, the “Tm in presence of SAM” value at hNNMT [4] (hNNMT 1 uM, SAM 5 uM, compound 10 uM, protein with SAM alone Tm=38°C) is 41 °C. Further, the “shift in melting temperature (Tm) in presence of SAM” value is “up to 3 °C” at hNNMT [4] (listed as JBSFN-107) and ~ 3 °C on hNNMT [4] (listed as JBSNF-000107). The figures for the “shift in melting temperature (Tm) in presence of SAH” value at hNNMT [4] (listed as JBSFN-107) and at hNNMT [4] (listed as JBSNF-000107) were “up to 11 °C” and ~ 10 °C, respectively. The “% MNA reduction” value in test [3] is 30%.

Regarding `Br.N=C1N(CC(F)(F)F)Cc2cc(F)cc3c2N1CCO3` [Compound (21)], on hNNMT [1], the “hNNMT IC50” value is “inactive” and the IC50 was above 30 µM.

Take `CN1Cc2cccc3c2N(CCS3)C1=N` [Compound (13)]: the figures for the IC50 at hNNMT [1] and on mouse NNMT were 0.86 ± 0.06 µM and 0.2 ± 0.02 µM, respectively. The EC50 in test [2] was above 10 µM. Besides, the “% MNA reduction” value in test [3] is on record as 40%.

As for `CN1Cc2cccc3c2N(CCN3C)C1=N` [Compound (16)], the IC50 at hNNMT [1] was above 30 µM.

With `CN1Cc2cccc3ccn(c23)C1=N` [Compound (23)], at hNNMT [1], the IC50 is above 30 µM.

For `CN1Cc2cc(F)cc3c2N(CCC3)C1=N` [Compound (2)], at hNNMT [1], the IC50 amounted to 0.059 ± 0.004 µM. Also, the IC50 on mouse NNMT worked out at 0.33 ± 0.13 µM. Moreover, in test [2], the “Cell based inhibition in U2OS EC50” value is listed as “active” and the EC50 amounted to 2.2 ± 0.1 µM. The “% MNA reduction” value in test [3] is on record as 21%.

Regarding `CN(C)C(=O)N1CCN2C(=N)N(C)Cc3cccc1c32` [Compound (17)], the IC50 on hNNMT [1] is above 30 µM.

Turning to `CN1CCc2cccc3c2N(CC3)C1=N` [Compound (27)], the IC50 on hNNMT [1] is above 3 µM.

For the compound `CN1Cc2cc(F)cc3c2N(CCN3C)C1=N` [Compound (20)], at hNNMT [1], the IC50 was above 3 µM.

For `CN1Cc2c(F)c(F)cc3c2N(CCC3)C1=N` [Compound (3)], the IC50 was 0.2 µM and 0.19 µM at hNNMT [1]; 1.2 ± 0.75 µM at mouse NNMT. Moreover, the concentration giving a half-maximal response (EC50) in test [2] was above 3 µM. Further, the “% MNA reduction” value in test [3] is on record as 14%.

On to `CN1Cc2cccc3c2N(CCCC3)C1=N` [Compound (5)], for which the IC50 at hNNMT [1] is above 30 µM.

For the compound `CN1Cc2cccc3c2N(CCN3C#N)C1=N` [Compound (14)], the values for the 50% inhibitory concentration (IC50) on hNNMT [1] and on mouse NNMT were 0.25 ± 0.07 µM and 0.72 ± 0.07 µM, respectively.

Take `CNc1ccc(C(N)=O)cn1` [Compound 28, 6-methylaminonicotinamide]: the IC50 in the test with NNMT is 0.59 µM.

`CN1Cc2cccc3c2N(CCO3)C1=N` [Compound (12)]: the IC50 was 0.18 ± 0.02 µM at hNNMT [1] and 0.38 ± 0.02 µM at mouse NNMT.

Regarding `CN1Cc2cncc3c2N(CCC3)C1=N` [Compound (4)], the values for the half-inhibitory concentration (IC50) at hNNMT [1] and at mouse NNMT were 0.36 ± 0.1 µM and 0.77 ± 0.04 µM, respectively.

For the compound `CN1Cc2ccc(F)c3c2N(CC3)C1=N` [Compound (11)], the IC50 at hNNMT [1] is above 1 µM.

`Br.CN1Cc2cc(F)cc3c2N(CCO3)C1=N` [Compound (18)]: the IC50 is 0.069 ± 0.036 µM at hNNMT [1] and above 3 µM on mouse NNMT. For the same compound, the EC50 in test [2] came to 2.5 ± 0.2 µM. Also, the “% MNA reduction” value in test [3] is reported as 30%.

On to `CN1Cc2cccc3c2N(CC3)C1=O` [(7), 2-methyl-1,2,5,6-tetrahydro-3H-pyrrolo[3,2,1-ij]quinazolin-3-one], for which the “hNNMT IC50” value on hNNMT [1] was “inactive”.

Consider `CN1Cc2cccc3c2N(CCC3)C1=N` [Compound (1)], for which the half-inhibitory concentration (IC50) on hNNMT [1] amounted to 0.13 ± 0.08 µM. Also, the IC50 at mouse NNMT came out at 0.18 ± 0.01 µM. Besides, in test [2], the “Cell based inhibition in U2OS EC50” value was “active” and the EC50 amounted to 2.5 ± 0.3 µM. For the same compound, the “% MNA reduction” value in test [3] was 30%.
